Where two headings read alike, the source gives them in different places.
Experiments:
[1] = tested on: L. (L.) amazonensis promastigotes; experiment: Growth inhibition of promastigotes, MTT assay, 72 h; type: cell-based; settings: Leishmania amazonensis; for IC50: read-out: Promastigotes IC50
Experimental: (§1) The species Leishmania (Leishmania) amazonensis (IFLA/BR/67/PH8) was maintained in promastigote form at a temperature of 26 °C in a biochemical oxygen demand incubator (BOD) (Eletrolab EL202, São Paulo, Brazil) and in complete Schneider medium (20% heat-inactivated fetal bovine serum (FBS), and 1% antibiotic solution). The L. (L.) amazonensis axenic amastigote forms were obtained through the differentiation of infective promastigote forms using Schneider medium supplemented with 5% FBS, pH 4.6, at a temperature of 32 °C. Parasite growth was observed daily and, if necessary, weekly repeats were performed.
(§2) Promastigote forms or axenic amastigotes in an exponential growth phase were cultured in 96-well plates with complete Schneider’s medium, at 1 × 10^6 parasites/mL. […] The plates were incubated for 72 h under a BOD at 26 °C to prepare promastigotes and 32 °C to prepare amastigotes. When ready, 10 μL of MTT (5 mg/mL) was added to all wells (with the exception of the blank) with an incubation for 4 h. Subsequently, 50 μL of SDS solution (dodecyl sodium sulfate) at 10% was added to dissolve the formazan crystals, and a spectrophotometric reading was then performed (Biotek model ELx800, Winooski, VT, USA) at 540 nm. Schneider medium with 0.5% DMSO was used, considering a 0% growth inhibition for the negative control.

in vitro [2] = settings: African green monkey
Experimental: (§3) Murine J774A.1 lineage macrophages and VERO CCL 81 cells were grown in 750 cm^2 cell culture flasks (Corning Glass Workers, New York, NY, USA) containing complete RPMI medium (10% SFB and 1% stabilized anti-mycotic–antibiotic solution), incubated at 37 °C and 5% CO2. The cells were observed on all days and replicates were always conducted after the cells reached confluence, around 72 to 96 h [22].
(§4) The cytotoxicity assay was performed in 96-well plates using MTT for cell viability observation. Plates containing 100 μL of complete RPMI medium and approximately 5 × 10^5 J774A.1 macrophages or VERO CCL 81 cells were incubated for 4 h at 37 °C and 5% CO2 for cell adhesion to occur. […] As a positive control, the reference drugs meglumine antimoniate (200–40,000 µM) and amphotericin B (0.031–2 µM) were used, and as a negative control, complete RPMI 1640 medium at 0.5% DMSO was used (considering 100% cell viability). After 72 h of incubation at 37 °C and 5% CO2, 10 μL of MTT was added and incubated for another 4 h at room temperature. The medium was then removed, and 100 μL of DMSO was added to dilute the formazan crystals created by the MTT [23]. Finally, the plate was taken to be read at 540 nm in a (Biotek model Elx800) spectrophotometer.

in vitro [3] = settings: mouse
Experimental: as §3, §4

[4] = tested on: L. (L.) amazonensis axenic amastigotes; experiment: Growth inhibition of axenic amastigotes, MTT assay, 72 h; type: cell-based, Leishmania (Leishmania) amazonensis; settings: for EC50: read-out: Axenic Amastigotes EC50
Experimental: as §1, §2

[5] = tested on: L. (L.) amazonensis intracellular amastigotes; experiment: Activity against intramacrophageal amastigotes in infected J774A.1 macrophages; type: cell-based, Leishmania (Leishmania) amazonensis; settings: for EC50: read-out: Intracellular Amastigotes EC50; for reduction in macrophage infection rate / reduction in the number of internalized amastigotes per infected macrophage: compared to negative control
Experimental: Macrophages were added to 24-well culture plates containing complete RPMI medium and sterile 13 mm coverslips, 1 × 10^5 J774A.1, and for cell adhesion incubated at 37 °C and 5% CO2 for 3 h. The medium was then removed, and three washes with PBS at 37 °C to remove non-adherent cells were performed. New medium, together with metacyclic promastigote forms in a proportion of 10 promastigotes/macrophage, was then added to the wells for infection and then incubated for another 4 h at 37 °C and 5% of CO2. The medium was then removed again and the plate washed with PBS to remove non-internalized […]. […] Subsequently, the coverslips were removed, stained with a quick panoptic kit, and mounted with Entelan®. In each coverslip, 300 macrophages were counted, together with the number of internalized amastigotes through optical microscopy at 1000× magnification. For the negative control, complete RPMI medium with 0.5% DMSO was used. At the end of the macrophage infection assay, the supernatant was stored at −20 °C for the subsequent evaluation of NO production.

[6] = tested on: amastigotes of L. (L.) amazonensis; settings: cited from earlier work
[7] = tested on: promastigotes of L. (L.) amazonensis; settings: cited from earlier work
[8] = Cytotoxicity on VERO cells, MTT assay, 72 h; settings: African green monkey, VERO CCL 81 cells
Experimental: as §3, §4

J774A.1 macrophages [9] = experiment: Lysosomal activity, neutral red retention; type: cell-based, murine; settings: 12.5 μM, 6.25 μM and 3.12 μM, 72 h, relative to negative control
Experimental: After this, 10 μL of PBS and 2% red neutral (VN) were added, with incubation in an incubator for another 30 min. Soon afterwards, the supernatant was aspirated and the plates washed 3× with PBS to remove excess VN. […] Finally, the plates were placed under agitation in a Kline apparatus for 30 min, and then read in a spectrophotometer at 540 nm.

[10] = tested on: J774A.1 macrophages infected with L. (L.) amazonensis; experiment: Nitric oxide production by infected macrophages, Griess reagent; type: cell-based, murine; settings: 3.12 μM, 6.25 μM and 12.5 μM, 72 h, compared to negative control
Experimental: The measurement of NO production (using macrophage infection supernatant) was performed by the production of nitrite with Griess reagent. About 100 µL of infection supernatant was added to a 96-well plate. In parallel, serial concentrations of NaNO2 in RPMI medium were also added to the plate for interpolation of the standard curve. Griess reagent (1% Sulfanilamide in 10% (v/v) H3PO4 in Milli-Q® water and in equal parts to 0.1% naphthylenediamine in Milli-Q® water Q®) was then added and incubated for 10 min at room temperature. At the end of the incubation, a reading was conducted on a plate reader at 540 nm. The positive control was performed with Escherichia coli lipopolysaccharide at 2 μg/mL.

[11] = tested on: J774A.1 macrophages infected with L. (L.) amazonensis; experiment: ROS production in infected macrophages, H2DCFDA test; type: cell-based, murine; settings: 3.12 μM, 6.25 μM and 12.5 μM, 72 h, compared to negative control
Experimental: Macrophages were incubated in 96-well plates with complete RPMI medium for 3 h at 37 °C, and 5% CO2 for adherence. These were then infected with L. […] Then 10 μL of H2DCFDA was added for a final concentration of 20 μM and incubated for 30 min in the dark at 37 °C. A spectrofluorometer (FLx800) was used to read the fluorescence intensity, using 485 nm of excitation and 528 nm of emission. Antimycin A (5 μM) was used as the positive control for ROS generation.

J774A.1 macrophages [12] = experiment: Phagocytic capacity, neutral-red-stained zymosan; type: cell-based, murine; settings: 12.5 μM, 6.25 μM and 3.12 μM, 72 h, compared to negative control
Experimental: At 72 h, 10 μL of VN-stained zymosan was added and then incubated for 30 min. […] To remove what was not phagocytized by the macrophages, the plate was washed with PBS. The plate extraction solution was added, and then solubilization was performed in a Kline shaker. The board was taken for reading on a spectrophotometer at 540 nm.

[13] = Cytotoxicity on macrophages, MTT assay, 72 h; settings: mouse
Experimental: as §3, §4

[14] = tested on: L. (L.) amazonensis-infected J774A.1 macrophages; experiment: Cytokine production in infected macrophages, ELISA; type: cell-based, murine; settings: 72 h
Experimental: According to Rodrigues et al., 2021 [27], to carry out cytokine evaluation, the supernatant saved after the J774A.1 macrophage infection assay was used to evaluate cytokine production. Analysis kits (optEIATM ELISA, Pharmingen, San Diego, CA, USA) were used following the manufacturer’s protocol to examine the release of cytokines (TNF-α, IL-1α, IL-6, IL-10, and IL-12), and standard recombinant cytokines were used to produce a curve. The reading was performed in a spectrophotometer at 450 nm.

[15] = read-out: growth inhibition of promastigote forms
[16] = Leishmania amazonensis, read-out: growth inhibition of axenic amastigote forms

Molecule: C[C@@H]1[C@H](O)[C@@H](C)/C=C/C=C/C=C/C=C/C=C/C=C/C=C/[C@H](O[C@@H]2O[C@H](C)[C@@H](O)[C@H](N)[C@@H]2O)C[C@@H]2O[C@](O)(C[C@@H](O)C[C@@H](O)[C@H](O)CC[C@@H](O)C[C@@H](O)CC(=O)O[C@H]1C)C[C@H](O)[C@H]2C(=O)O [Amphotericin B, reference compound]
- IC50 ([1]; 26 °C, MTT): 0.36 ± 0.03 µM
- CC50 at 72 h (in vitro [2]): 0.32 ± 0.08 µM
- CC50 at 72 h (in vitro [3]): 0.38 ± 0.06 µM
- EC50 ([4]; Leishmania amazonensis, 32 °C, MTT): 0.23 ± 0.01 µM
- EC50 ([5]; Leishmania amazonensis, J774.A1, infected J774A.1 macrophages, 72 h): 0.29 ± 0.04 µM

Molecule: C=C(C)[C@@H]1CC[C@]2(C)CC[C@]3(C)[C@H](CC[C@@H]4[C@@]5(C)CC[C@H](O)C(C)(C)[C@@H]5CC[C@]43C)[C@@H]12 [Lupeol]
- IC50 for amastigote forms ([6]; L. (L.) amazonensis amastigote forms ref 38): 44.1 µg/mL
- IC50 for promastigotes ([7]; L. (L.) amazonensis promastigotes ref 38): 39.06 µg/mL

Molecule: CC1(C)C=C2[C@H]3CC[C@@H]4[C@@]5(C)CC[C@H](O)C(C)(C)[C@@H]5CC[C@@]4(C)[C@]3(C)CC[C@@]2(C(=O)O)CC1 [Morolic acid, morolic acid]
- IC50 [1]: 1.13 ± 0.04 µM
- inhibition at 1.56 µM [1, 15]: 57.6%
- inhibition at 3.12 µM [1, 15]: 57.9%
- inhibition at 6.25 µM [1, 15]: 83.3%
- inhibition at 12.5 µM [1, 15]: 100%
- inhibition at 25 µM [1, 15]: 100%
- inhibition at 50 µM [1, 15]: 100%
- inhibition at 100 µM [1, 15]: 100%
- CC50 at 72 h [8]: 82.9 ± 1.84 µM
- viability at 72 h, 1.56 µM [8]: 100%
- viability at 72 h, 3.12 µM [8]: 100%
- viability at 72 h, 6.25 µM [8]: 93.2%
- viability at 72 h, 12.5 µM [8]: 88.8%
- viability at 72 h, 25 µM [8]: 79.4%
- viability at 72 h, 50 µM [8]: 71.2%
- viability at 72 h, 100 µM [8]: 38.8%
- viability at 72 h, 200 µM [8]: 24.3%
- lysosomal activity (J774A.1 macrophages [9]): increased
- levels of NO produced in infected macrophages [10]: increase
- levels of ROS produced in infected macrophages [11]: increase
- phagocytic capacity for zymosan (J774A.1 macrophages [12]): significant increase
- CC50 at 72 h [13]: 68.6 ± 2.46 µM
- viability at 72 h, 1.56 µM ([13]; J774A.1 macrophages): 100%
- viability at 72 h, 3.12 µM ([13]; J774A.1 macrophages): 100%
- viability at 72 h, 6.25 µM ([13]; J774A.1 macrophages): 100%
- viability at 72 h, 12.5 µM ([13]; J774A.1 macrophages): 100%
- viability at 72 h, 25 µM ([13]; J774A.1 macrophages): 100%
- viability at 72 h, 50 µM ([13]; J774A.1 macrophages): 65%
- viability at 72 h, 100 µM ([13]; J774A.1 macrophages): 15%
- viability at 72 h, 200 µM ([13]; J774A.1 macrophages): 0%
- IL-1α levels [14]: no effect
- IL-12 levels [14]: no effect
- production of TNF-α ([14]; at the higher concentration): significant increase
- IL-6 levels ([14]; at the highest concentrations): significant reduction
- IL-10 levels ([14]; at the highest concentrations): significant reduction
- EC50 ([4]; Leishmania amazonensis): 2.74 ± 0.03 µM
- inhibition at 1.56 µM [4, 16]: 34.1%
- inhibition at 3.12 µM [4, 16]: 68.6%
- inhibition at 6.25 µM [4, 16]: 76.4%
- inhibition at 12.5 µM [4, 16]: 100%
- inhibition at 25 µM [4, 16]: 100%
- inhibition at 50 µM [4, 16]: 100%
- inhibition at 100 µM [4, 16]: 100%
- reduction in macrophage infection rate ([5]; 1.56 μM, 72 h): 34%
- reduction in the number of internalized amastigotes per infected macrophage ([5]; 1.56 μM, 72 h): 59.1%
- reduction in macrophage infection rate ([5]; 3.12 μM, 72 h): 77.5%
- reduction in the number of internalized amastigotes per infected macrophage ([5]; 3.12 μM, 72 h): 71.6%
- reduction in macrophage infection rate ([5]; 6.25 μM, 72 h): 93%
- reduction in the number of internalized amastigotes per infected macrophage ([5]; 6.25 μM, 72 h): 86.8%
- reduction in macrophage infection rate ([5]; 12.5 μM, 72 h): 100%
- reduction in the number of internalized amastigotes per infected macrophage ([5]; 12.5 μM, 72 h): 100%
- EC50 ([5]; Leishmania amazonensis, J774.A1, 72 h): 2.56 ± 0.08 µM

Molecule: Meglumine antimoniate [reference compound]
- EC50 ([4]; 32 °C, MTT): 1020 ± 25.7 µM
- EC50 ([5]; infected J774A.1 macrophages, 72 h): 541 ± 13.5 µM

Molecule: C[C@H]1[C@H](C)CC[C@]2(C(=O)O)CC[C@]3(C)C(=CC[C@@H]4[C@@]5(C)CC[C@H](O)C(C)(C)[C@@H]5CC[C@]43C)[C@H]12 [ursolic acid]
- IC50 for axenic amastigotes ([6]; L. (L.) amazonensis axenic amastigotes ref 37): 2.24 µg/mL
- IC50 for promastigotes ([7]; L. (L.) amazonensis promastigotes ref 37): 14.1 µg/mL
